# Measurements taken from paper PMC12169615, “Fluorescent 4‑Nitrobenzo-2-oxa-1,3-diazole-Coupled Bile Acids as Probe Substrates of Hepatic and Intestinal Bile Acid Transporters of the Solute Carrier Families SLC10 and SLCO” (Journal of Medicinal Chemistry, 2025).
# Legend:
# [1] = design: method as in Petzinger et al.; conditions: after in situ ileal perfusion, rat, within 120 min; ref Petzinger et al.; cited from earlier work
# [2] = target: T1, human ASBT (Homo sapiens, UniProt Q12908); assay: cell-based
# T1 sequence (Q12908 1-348): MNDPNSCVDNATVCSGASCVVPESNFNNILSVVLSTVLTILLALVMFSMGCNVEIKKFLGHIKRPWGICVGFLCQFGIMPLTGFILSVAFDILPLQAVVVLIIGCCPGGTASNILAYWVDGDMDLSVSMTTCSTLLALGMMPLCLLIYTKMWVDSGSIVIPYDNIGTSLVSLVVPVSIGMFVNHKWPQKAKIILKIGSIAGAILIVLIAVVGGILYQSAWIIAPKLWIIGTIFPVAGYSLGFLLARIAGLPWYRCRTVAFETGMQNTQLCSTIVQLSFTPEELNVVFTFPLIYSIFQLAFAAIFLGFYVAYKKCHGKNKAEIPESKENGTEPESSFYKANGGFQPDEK
# Procedure: (§1) HEK293 cells stably expressing human NTCP (A), mouse mNtcp (B), human ASBT (C), or mouse mAsbt (D) were used for transport experiments with 3α-NBD-GCA (16d) as the substrate. Fluorescence data in the absence of inhibitors were set as 100% and the fluorescence levels in sodium-free transport buffer were set to 0%. […] Half-maximal inhibitory concentrations (IC50) were calculated by nonlinear regression analysis.
# (§2) For quantitative transport experiments, cells were seeded onto polylysine-coated 96-well plates and grown to confluence over 72 h at 37 °C. Then, cells were washed three times with phosphate-buffered saline (PBS), containing 137 mM NaCl, 2.7 mM KCl, 1.5 mM, KH2PO4, and 7.3 mM Na2HPO4 (pH 7.4) followed by preincubation in sodium transport buffer (STB) containing 142.9 mM NaCl, 4.7 mM KCl, 1.2 mM MgSO4, 1.2 mM KH2PO4, 1.8 mM CaCl2, and 20 mM HEPES (pH 7.4). For transport assays under sodium-free conditions (-Na^+), sodium chloride of the STB was substituted with equimolar concentrations of choline chloride. […] Then, transport experiments were started by adding 20 μL STB containing 125 μM of 3α-NBD-GCA (final substrate concentration: 25 μM). All transport experiments were stopped after 10 min, if not otherwise indicated, by aspirating the transport buffer and washing the cells twice with ice-cold PBS. […]
# [3] = target: T2, mouse mAsbt (Mus musculus, UniProt P70172); assay: cell-based
# T2 sequence (P70172 1-348): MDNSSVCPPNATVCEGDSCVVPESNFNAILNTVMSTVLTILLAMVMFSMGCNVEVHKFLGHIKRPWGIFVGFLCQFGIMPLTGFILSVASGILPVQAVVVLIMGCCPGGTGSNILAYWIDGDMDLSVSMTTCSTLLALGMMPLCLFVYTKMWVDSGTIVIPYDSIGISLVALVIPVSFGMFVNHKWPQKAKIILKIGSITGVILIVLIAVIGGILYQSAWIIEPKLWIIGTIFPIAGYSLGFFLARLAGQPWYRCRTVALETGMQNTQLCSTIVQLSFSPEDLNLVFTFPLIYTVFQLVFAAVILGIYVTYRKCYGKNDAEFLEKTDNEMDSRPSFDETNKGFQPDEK
# Procedure: as §1, §2
structure (smiles),measurement,setting,value
C[C@H](CCC(=O)NCCS(=O)(=O)O)[C@H]1CC[C@H]2[C@@H]3[C@H](O)C[C@@H]4CC(Nc5ccc([N+](=O)[O-])c6nonc56)CC[C@]4(C)[C@H]3C[C@H](O)[C@]12C (stereo partly drawn) [S4148],Compound secreted into bile,[1],76%
Cc1c(C)c2c(c(C)c1O)CCC(C)(COc1ccc(CC3SC(=O)NC3=O)cc1)O2 (stereo not drawn) [troglitazone],IC50,[2],19.5 µM
same,IC50,[3],18.9 µM
